What was measured:
[1] = tested on: HIV-1 NL4-3; test: Two-drug combination study with Compound 1 (combination indices); type: cell-based; details: for Combination Indices at 50% HIV Inhibition (Confidence Interval) / Combination Indices at 75% HIV Inhibition (Confidence Interval) / Combination Indices at 90% HIV Inhibition (Confidence Interval): 95% CI in parentheses; for Overall Result: overall antiviral effect of the two-drug combination with Compound 1, all ratios and effective levels
Description: (§1) Virus and cell lines. The T-cell line, MT-2 was obtained through the AIDS Research and Reference Reagent Program, NIAID and was contributed by Dr. D. Richman. The cell line was cultured in RPMI 1640 medium supplemented with 10% fetal bovine serum, 2 mM L-glutamine and sub-cultured twice a week. The NL4-3 strain of HIV-1 was obtained from the AIDS Research and Reference Reagent Program. Both virus stocks were amplified and titered in MT-2 cells using a virus infectivity assay.
(§2) Drug Susceptibility and Cytotoxicity Assays. For drug susceptibility assays, MT-2 cells were infected with HIV-1 NL4-3 at an MOI of 0.001, and seeded into 96-well microtiter plates (2.5×10^5 cells/ml) containing serial dilutions of test compounds. […] Each drug ratio consisted of an array of 3-fold serial dilutions, and was performed in quadruplicate. The plates were incubated at 37° C./5% CO2. The MT-2 cells infected with HIV-1 NL4-3 were incubated for 5 days. On day-five post-infection, 20 μl from each well was harvested and quantitated by a reverse transcriptase (RT) assay or an MTS assay. Cytotoxicity assays were performed using uninfected cells, exposed to the same drug combinations, and incubated for five days. Cell viability was determined by an XTT assay. The CC50 values were calculated by using the exponential form of the median effect equation as mentioned below for calculation of EC50.
Analysis of Drug Combination Effects. For determination of CI values, drugs were diluted in a fixed ratio and multiple ratios were analyzed. The drug serial dilutions spanned a range of concentrations near the EC50 value of each compound, so that equivalent antiviral activities could be compared. Concentration-response curves were estimated for each individual drug and every combination using the median-effect equation. The equation was fit using a nonlinear regression routine (Proc Nlin) in PC SAS version 8.01 (SAS Institute Inc., SAS Version 8.01, Cary, N.C.: SAS Institute Inc., 1990).
(§3) In this equation, Fa stands for “fraction affected,” and represents the fraction of the viral load that has been inactivated.
To assess antiviral effects of different drug combination treatments, combination indices (CIs) were calculated according to Chou and Rideout. The combination index was computed as CI=[D]1/[Dm]1+[D]2/[Dm]2
In this equation [Dm]1 and [Dm]2 are the concentrations of drugs that would individually produce a specific level of effect, while [D]1 and [D]2 are the concentrations of drugs in combination that would produce the same level of effect.
Theoretically, additivity is implied if the CI is equal to one, synergy if the CI is less than one, and antagonism if the CI is greater than one. […] At best, we can construct a range that contains the likely values for the CI, given the noise in the data. In this report, these ranges are reported in parentheses next to each point estimate of the CI. […] If the range fell entirely above 1.0, we would infer antagonistic behavior. If the range were to include 1.0, we would infer additivity.

[2] = tested on: HIV-1 NL4-3; test: microbe, parasite or virus in culture
Description: as §1, §2, §3
In carrying out the combination experiments below, the EC50 for Compound 1 and each comparator compound was determined during the course of each study, and used in the subsequent data analysis.

[3] = combination with Compound 1, EC50 ratio 1:1 (Compound 1:comparator)
[4] = combination with Compound 1, EC50 ratio 1:2.5 (Compound 1:comparator)
[5] = combination with Compound 1, EC50 ratio 2.5:1 (Compound 1:comparator)
[6] = Human immunodeficiency virus 1, NL43, MT2, 120 h

Nc1ccn([C@H]2CC[C@@H](CO)O2)c(=O)n1 [Zalcitabine, zalcitabine]
Combination Indices at 50% HIV Inhibition (Confidence Interval) [1, 3]: 0.79 (0.64, 0.94) | Combination Indices at 75% HIV Inhibition (Confidence Interval) [1, 3]: 0.75 (0.55, 0.96) | Combination Indices at 90% HIV Inhibition (Confidence Interval) [1, 3]: 0.72 (0.42, 1.02) | Combination Indices at 50% HIV Inhibition (Confidence Interval) [1, 4]: 0.83 (0.70, 0.95) | Combination Indices at 75% HIV Inhibition (Confidence Interval) [1, 4]: 0.70 (0.56, 0.85) | Combination Indices at 90% HIV Inhibition (Confidence Interval) [1, 4]: 0.60 (0.41, 0.80) | Combination Indices at 50% HIV Inhibition (Confidence Interval) [1, 5]: 0.85 (0.75, 0.95) | Combination Indices at 75% HIV Inhibition (Confidence Interval) [1, 5]: 0.72 (0.61, 0.84) | Combination Indices at 90% HIV Inhibition (Confidence Interval) [1, 5]: 0.61 (0.46, 0.77) | Overall Result [1]: Synergistic | Overall Result ([1]; listed as zalcitabine): synergistic | EC50 [2, 6]: 120 nM

Cc1cn([C@H]2C[C@H](N=[N+]=[N-])[C@@H](CO)O2)c(=O)[nH]c1=O [Zidovudine, zidovudine]
Combination Indices at 50% HIV Inhibition (Confidence Interval) [1, 3]: 0.21 (0.16, 0.26) | Combination Indices at 75% HIV Inhibition (Confidence Interval) [1, 3]: 0.15 (0.10, 0.20) | Combination Indices at 90% HIV Inhibition (Confidence Interval) [1, 3]: 0.12 (0.06, 0.18) | Combination Indices at 50% HIV Inhibition (Confidence Interval) [1, 4]: 0.33 (0.26, 0.40) | Combination Indices at 75% HIV Inhibition (Confidence Interval) [1, 4]: 0.23 (0.16, 0.29) | Combination Indices at 90% HIV Inhibition (Confidence Interval) [1, 4]: 0.16 (0.09, 0.24) | Combination Indices at 50% HIV Inhibition (Confidence Interval) [1, 5]: 0.21 (0.18, 0.24) | Combination Indices at 75% HIV Inhibition (Confidence Interval) [1, 5]: 0.16 (0.12, 0.19) | Combination Indices at 90% HIV Inhibition (Confidence Interval) [1, 5]: 0.13 (0.08, 0.17) | Overall Result [1]: Synergistic | Overall Result ([1]; listed as zidovudine): synergistic | EC50 [2, 6]: 2 nM

enfuvirtide
Combination Indices at 50% HIV Inhibition (Confidence Interval) [1, 3]: 0.74 (0.58, 0.89) | Combination Indices at 75% HIV Inhibition (Confidence Interval) [1, 3]: 0.95 (0.67, 1.24) | Combination Indices at 90% HIV Inhibition (Confidence Interval) [1, 3]: 1.25 (0.66, 1.83) | Combination Indices at 50% HIV Inhibition (Confidence Interval) [1, 4]: 0.72 (0.55, 0.89) | Combination Indices at 75% HIV Inhibition (Confidence Interval) [1, 4]: 0.69 (0.46, 0.91) | Combination Indices at 90% HIV Inhibition (Confidence Interval) [1, 4]: 0.68 (0.33, 1.02) | Combination Indices at 50% HIV Inhibition (Confidence Interval) [1, 5]: 1.04 (0.82, 1.27) | Combination Indices at 75% HIV Inhibition (Confidence Interval) [1, 5]: 0.95 (0.66, 1.24) | Combination Indices at 90% HIV Inhibition (Confidence Interval) [1, 5]: 0.87 (0.45, 1.29) | Overall Result [1]: Additive- | Overall Result ([1]; listed as T-20): synergistic to additive | EC50 ([2]; NL4-3): 7 nM
